The values that follow come from ChEMBL document CHEMBL3817791, “Discovery of 4-(4-aminopyrazolo[1,5-a][1,3,5]triazin-8-yl)benzamides as novel, highly potent and selective, orally bioavailable inhibitors of Tyrosine Threonine Kinase, TTK” (Bioorg Med Chem Lett, 2016).

Data set [1] deals with T1, Serine/threonine-protein kinase PLK4 (Homo sapiens, UniProt O00444).
T1 sequence (O00444 whole entry): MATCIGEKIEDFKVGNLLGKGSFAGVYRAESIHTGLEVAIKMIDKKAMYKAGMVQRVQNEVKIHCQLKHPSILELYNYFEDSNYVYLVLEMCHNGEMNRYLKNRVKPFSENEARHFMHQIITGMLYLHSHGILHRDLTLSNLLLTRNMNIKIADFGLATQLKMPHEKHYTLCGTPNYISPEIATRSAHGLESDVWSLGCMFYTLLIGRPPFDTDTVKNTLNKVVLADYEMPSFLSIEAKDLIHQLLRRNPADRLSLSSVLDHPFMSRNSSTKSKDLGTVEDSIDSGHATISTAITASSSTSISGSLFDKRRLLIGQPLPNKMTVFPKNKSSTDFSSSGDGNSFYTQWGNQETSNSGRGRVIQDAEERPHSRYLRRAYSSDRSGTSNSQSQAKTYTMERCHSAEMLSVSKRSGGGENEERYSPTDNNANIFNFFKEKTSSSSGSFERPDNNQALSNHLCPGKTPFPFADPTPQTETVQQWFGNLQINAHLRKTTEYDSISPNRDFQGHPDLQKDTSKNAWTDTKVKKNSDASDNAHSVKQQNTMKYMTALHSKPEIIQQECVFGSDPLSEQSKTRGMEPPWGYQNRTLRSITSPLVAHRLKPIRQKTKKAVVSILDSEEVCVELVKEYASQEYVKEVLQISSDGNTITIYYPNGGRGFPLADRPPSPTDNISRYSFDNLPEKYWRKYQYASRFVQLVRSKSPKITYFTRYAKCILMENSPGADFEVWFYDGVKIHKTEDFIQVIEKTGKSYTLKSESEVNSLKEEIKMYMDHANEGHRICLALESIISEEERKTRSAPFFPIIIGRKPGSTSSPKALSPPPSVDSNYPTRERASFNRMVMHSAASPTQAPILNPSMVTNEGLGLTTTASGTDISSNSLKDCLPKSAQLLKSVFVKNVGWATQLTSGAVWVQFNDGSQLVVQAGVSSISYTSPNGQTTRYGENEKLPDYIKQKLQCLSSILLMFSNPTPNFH
Description: Inhibition of human PLK4 by radiometric assay.

Data set [2] can be described thus: Half life in mouse microsomes. In kind it is ADME, Microsome.
Data set [3] in a line: Antiproliferative activity against human PA1 cells. It is filed as functional. The following applies: PA-1.
Data set [4] in a line: AUC (0 to last) in CD-1 nude mouse at 55 mg/ml, po. It is filed as ADME, organism-based. Set-up: dose 55 mg/ml, route oral, time 0 - last. The note with it: in vivo.
Data set [5] is described as follows: Cmax in CD-1 nude mouse at 25 mg/ml, po. It is filed as ADME, organism-based. Further details: dose 25 mg/ml, route oral. The note with it: in vivo.
Data set [6] can be described thus: AUC (0 to last) in CD-1 nude mouse at 10 mg/ml, po. Set-up: dose 10 mg/ml, route oral, time 0 - last. The note with it: in vivo. In kind it is ADME, organism-based.
The target in a further data set is T2, Aurora kinase A (Homo sapiens, UniProt O14965).
T2 sequence (O14965 whole entry): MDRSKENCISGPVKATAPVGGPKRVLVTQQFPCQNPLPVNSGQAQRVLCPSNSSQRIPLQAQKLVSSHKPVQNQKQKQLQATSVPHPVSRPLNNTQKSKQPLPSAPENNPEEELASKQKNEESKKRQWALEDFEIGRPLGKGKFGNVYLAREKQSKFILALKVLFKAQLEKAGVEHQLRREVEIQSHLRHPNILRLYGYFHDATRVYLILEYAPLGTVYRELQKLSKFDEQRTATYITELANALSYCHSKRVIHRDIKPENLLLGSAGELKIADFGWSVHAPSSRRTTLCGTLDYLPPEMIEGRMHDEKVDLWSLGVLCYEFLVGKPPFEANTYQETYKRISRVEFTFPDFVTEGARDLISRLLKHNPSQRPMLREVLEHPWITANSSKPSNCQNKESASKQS
Description: Inhibition of full length recombinant human N-terminal His6-tagged Aurora A expressed in Sf21 cells by radiometric assay.

The next data set concerns HT-29. The data set is described as follows: Antiproliferative activity against human HT-29 cells. In kind it is functional.
The nature of data set [7]: Antiproliferative activity against human OVCAR3 cells. It is filed as functional. The following applies: OVCAR-3.
Data set [8] is described as follows: Cmax in CD-1 nude mouse at 55 mg/ml, po. It is filed as ADME, organism-based. Further details: dose 55 mg/ml, route oral. The note with it: in vivo.

Structures are written as SMILES. A value given as a limit tells only on which side of the number the result lay.

In the case of `Cc1cc(-c2cnn3c(NCC4CCOCC4)nc(Oc4ccccc4)nc23)ccc1C(=O)NC1CC1`, the IC50 (in [1]; at Aurora kinase A) was greater than 50000 nM in each case. In addition, in data set [2], the half-life was found to be 46 min. Besides, the results for the 50% growth inhibitory concentration (GI50) (in [3]; with HT-29; in data set [7]) were 30 nM, 15 nM and 190 nM, respectively. Moreover, the results for the AUC(0-t) in data set [4] and in data set [6] were 38100 ng·h/mL and 1530 ng·h/mL, respectively. The Cmax stood at 3200 ng/mL in data set [5] and 7600 ng/mL in data set [8].
